Assay results reported in patent publication US20220186188A1, “Method for Obtaining Pancreatic Progenitor Cells and Pancreatic Islet Beta Cells By Means of Differentiation of Human Pluripotent Stem Cells” (Asia Regenerative Medicine, Ltd., priority 2019, published 2022).

System: pancreatic progenitor cells and pancreatic islet β cells differentiated from human embryonic stem cells
Assay: Immunofluorescence detection of PDX1 and PDX1/INS proteins (human embryonic stem cells)
Type: cell-based
Experimental: a pancreatic progenitor cell medium was prepared, the medium in step 1) was replaced with the pancreatic progenitor cell medium, and the cells were cultured in a carbon dioxide incubator at 37 degrees Celsius for 5 days, during which the medium was replaced every day, wherein the composition of the pancreatic progenitor cell medium was: with an MCDB131 medium as a basic medium, and the following components at the working concentrations were further included: 0.5% of bovine serum albumin (BSA), 1.5 g/L of sodium bicarbonate, 1×glutamine (GlutaMAX), 10 mM glucose, 0.25 M vitamin C, 1×insulin-transferrin-selenium-ethanolamine additive (ITS-X), 50 ng/ml of fibroblast growth factor 7 (KGF), 0.5 μM SANT1 (with smo as an inhibitor target), 100 nM retinoic acid (TTNPB), 500 nM phorbol 12,13-dibutyrate (PDBu), 2 μM ALK inhibitor (K02288), and 2 μM WNT signaling pathway inhibitor XAV-939 (not added in a control group), with the concentrations all being final concentrations.
b. pancreatic islet β cell medium 2 was prepared, the pancreatic islet β cell medium 1 in above-mentioned step a was replaced with the pancreatic islet β cell medium 2, and the cells were cultured in a carbon dioxide incubator at 37 degrees Celsius for 5 days, during which the medium was replaced every day, wherein the composition of the pancreatic islet β cell medium 1 was: with an MCDB131 medium as a basic medium, and the following components at the working concentrations were further included: 20 mM glucose, 2% of bovine serum albumin (BSA), 1.5 g/L of sodium bicarbonate, 1×glutamine (GlutaMAX), 0.05 mM vitamin C, 1×insulin-transferrin-selenium-ethanolamine additive (ITS-X), 2 μM ALK inhibitor (K02288), 1 μM triiodothyronine (T3), 10 μM YO-01027 (Notch signaling pathway inhibitor), and 10 μM zinc sulfate, with the concentrations all being final concentrations; and the composition of the pancreatic islet β cell medium 2 was: with an MCDB131 medium as a basic medium, and the following components at the working concentrations were further included: 20 mM glucose, 2% of bovine serum albumin (BSA), 1.5 g/L of sodium bicarbonate, 1×glutamine (GlutaMAX), 0.05 mM vitamin C, 1×insulin-transferrin-selenium-ethanolamine additive (ITS-X), 1 μM triiodothyronine (T3), 10 μM Repsox (ALK5 inhibitor), 10 μM vitamin E, 10 μg/ml of heparin sodium, 2 μM R428 (Axl inhibitor), 10 μM zinc sulfate, and 10 mM N-acetyl-L-cysteine (N-cys), with the concentrations all being final concentrations.
Cells in a culture plate were washed three times with a phosphate buffered saline (PBS), 3 minutes each time; the cells were fixed with 4% paraformaldehyde at room temperature for 20 minutes, and washed three times with PBS, 3 minutes each time; a blocking solution was prepared in advance (by adding Triton at a final concentration of 0.3% to 9 ml of DPBS, adding donkey serum at a final concentration of 10%, and uniformly mixing); the above-prepared blocking solution was used for blocking and perforation at room temperature for 2 hours; the blocking solution was soaked up, a working concentration of primary antibody prepared with the blocking solution was then added, and the product was left to stand at room temperature for 30 minutes and then placed in a refrigerator at 4° C. overnight; the next day, the product was washed three times with PBS, 3 minutes each time; a fluorescent secondary antibody of donkey serum was added and incubation was carried out at room temperature for 2 hours; in the same way, the product was washed three times with PBS, 3 minutes each time; the product was incubated with a working solution of the nuclear dye DAPI at room temperature for 10 minutes, and washed three times with PBS, 3 minutes each time; then a fluorescence microscope was used for observation and data were collected. […]

[1] = 2 μM inhibitor in pancreatic progenitor cell stage

Oc1nc(-c2ccc(C(F)(F)F)cc2)nc2c1CSCC2 [XAV-939]
number of insulin INS-positive and PDX1 co-stained pancreatic islet β cells in the mature pancreatic islet β cell stage (2 μM inhibitor added in pancreatic progenitor cell stage, immunofluorescence): significantly increased | PDX1-positive pancreatic progenitor cells (immunofluorescence) [1]: significantly increased | cell growth (total cell number by DAPI) [1]: did not affect the cell growth
